Reference: patent US20130045484A1, “METHODS AND KITS FOR DETERMINING THE TOXICITY OF AN AGENT” (priority 2010, published 2013)
Counter-ions that a name gives are not always drawn. Like-named read-outs stand apart in the source and are kept apart here.

Experiments:
caspase-3 = test: Caspase-3 (apoptosis) Assay; assay type: cell-based, human; conditions: for Mean Apoptotic Index: mean Caspase-3 response (405 nm) ÷ mean ATP response × 10^8, mannitol 1 mg/ml, doxorubicin 1 μg/ml, MMS 50 μg/ml, phenformin 250 μg/ml
Protocol: The assay was carried out using the same cell containing sample(s) as the p53R2 Renilla Luciferase Reporter Gene, the Firefly Luciferase Bioluminescent ATP and the superoxide assays. Once again, all of the assays were performed in 96-well cluster plates. Activation of caspase-3 plays a central role in the execution-phase of apoptosis. Thus, the caspase-3 assay will provide useful information on the mechanism of cellular toxicity. Following SOD measurement, caspase-3 was measured on each cellular sample in accordance with the Caspase-3 Assay Kit manufacturer's instructions. Briefly, the colorimetric assay is based on the hydrolysis of the peptide substrate acetyl-Asp-Glu-Val-Asp p-nitroanilide (Ac-DEVD-pNA) by caspase-3, resulting in the release of the p-nitroaniline (pNA) moiety which can be measured at 405 nm.
For the assay, cellular sample lysates (5 μl) were added to a reaction mixture containing caspase-3 substrate (Ac-DEVD-pNA, 95 μl) and samples were incubated for 2 h at 37° C. Absorbance was measured at 405 nm using a 96-well microtitre plate reader.

p53R2 (RE) = test system: p53R2 (RE)
Protocol: Constructs were transiently transfected into human HEK 293 cells using a lipid-based commercially available reagent (FuGENE HD Transfection Reagent, Roche Applied Science). Transfections were carried out following the manufacturer's instructions. Briefly, freshly passaged cells (20,000/well) were dispensed into Greiner Bio-One tissue-culture treated μ-clear (clear base), white, sterile, 96-well cluster plates and incubated overnight (37° C., 95% humidity, 5% CO2) in antibiotic-free media. Cells were transfected (100 ng DNA/well; 5 μl transfection complex/well) with pGL4.70 [hRLuc], p53R2 (RE) pGL4.70 [hRLuc], pGL4.70 MinP [hRLuc], or p53R2 (RE) pGL4.70 MinP [hRLuc] for 24 h, in antibiotic-free media. Several FuGENE HD Transfection Reagent: DNA ratios (3:2-8:2 in the final complex) were evaluated in order to determine the optimal level of transient transfection.
Renilla luciferase activity was measured using the ViviRen Luciferase Live Cell Substrate following the Manufacturer's instructions. Briefly, the ViviRen substrate (60 mM; 20 μl) was diluted 1:50 with complete EMEM at room temperature. 10 μl was added to each culture well (to give a final concentration of 60 μM in each well containing cells to be tested). Microtitre plates were incubated for two minutes at room temperature before measuring luminescence on a Tecan Ultra (Tecan Corporation) in luminescence mode, integrating for 100 ms. Alternatively luminescence can be measured on a LEADseeker multi-modality instrument in luminescence mode (GE Healthcare).

superoxide dismutase = test: Superoxide Dismutase (SOD) (Oxidative Stress) Assay; assay type: cell-based, human; conditions: mean superoxide dismutase response (450 nm) ÷ mean ATP response × 10^7; HEK 293; mannitol 1 mg/ml, doxorubicin 1 μg/ml, MMS 50 μg/ml, phenformin 250 μg/ml
Protocol: The assay was conducted using the same cell containing sample(s) as the p53R2 Renilla Luciferase Reporter Gene and the Firefly Luciferase Bioluminescent ATP assays. The assays were performed in 96-well cluster plates.
On completion of ATP quantification, SOD was measured on each cellular sample following the SOD assay kit manufacturer's instructions. Briefly, the assay method is based on a water-soluble tetrazolium salt, WST-1 (2-(4-Iodophenyl)-3-(4-nitrophenyl)-5-(2,4-disulfophenyl)-2H-tetrazolium, monosodium salt) that produces a colourimetric formazan dye upon reduction with a superoxide anion which can be measured spectrophotometrically. The rate of the reduction with the superoxide anion is linearly related to […] xanthine oxidase (XO) activity. Thus, cellular samples (20 μl) were added to a reaction mixture (220 μl) containing WST-1 and XO and incubated for 20 mins at 37° C. Absorbance was measured at 450 nm using a 96-well microtitre plate reader.

HEK 293 cells = test: Firefly Luciferase Bioluminescent ATP cell viability assay; assay type: cell-based, human; conditions: for ATP response (cytotoxicity): phenformin 250 μg/ml, MMS 50 μg/ml, doxorubicin 1 μg/ml
Protocol: The assay was carried out in 96-well cluster plates on the same cell containing sample(s) as the p53R2 Renilla Luciferase Reporter Gene Assay. Traditionally bioluminescent ATP quantification methods use firefly luciferase to quantify ATP in the presence of inorganic magnesium ions and the substrate luciferin. The ATP assay described here uses a recombinant luciferase from a gene isolated from the Pennsylvania Firefly (Photuris pennsylvania). Following Renilla luciferase gene reporter activity quantification, firefly luciferase activity was measured in each well using the Cell-Titer Glo Luciferase ATP Quantification Assay Kit in accordance with the kit manufacturer's instructions. Briefly, the enzyme substrate was equilibrated to room temperature and reconstituted with the assay buffer. 100 μl of this reagent was added to cells which quenched the Renilla luciferase reaction and liberated the cellular contents by cellular lysis. […] It is based on the quantitative measurement of ATP which indicates the absolute number of metabolically active cells.

Salmonella = conditions: McCann et al., 1975, PNAS 72, 5135-5139; cited from earlier work
[1] = FIG. 16, apoptosis values alone, HEK 293

SMILES | Mean Apoptotic Index (caspase-3; HEK 293) | induction of Renilla luciferase (p53R2 (RE)) | Mean Stress Index (superoxide dismutase) | caspase 3 activities (caspase-3; [1]) | caspase 3 activities (caspase-3) | cytotoxicity based upon ATP levels (HEK 293 cells) | genotoxicity characterization (Salmonella) | ATP response (cytotoxicity) (HEK 293 cells; FIG. 10e, 8:2 transfection) | ATP response (cytotoxicity) (HEK 293 cells; FIG. 11e, 7:2 transfection) | cytotoxicity based upon ATP levels (HEK 293 cells; FIGS. 10 and 11)
OC[C@@H](O)[C@@H](O)[C@H](O)[C@H](O)CO [Mannitol, mannitol] | 1.04 | no induction | 1.22 |  |  |  |  |  |  | 
[H]/N=C(/N)N/C(=N/[H])NCCc1ccccc1 [Phenformin, phenformin hydrochloride] |  | no induction |  | comparable |  |  |  |  |  | 
COS(C)(=O)=O [Methylmethane sulfonate, methylmethane sulfonate] |  | less induction |  |  | comparable | not cytotoxic | moderately |  |  | 
COc1cccc2c1C(=O)c1c(O)c3c(c(O)c1C2=O)C[C@@](O)(C(=O)CO)C[C@@H]3O[C@H]1C[C@H](N)[C@H](O)[C@H](C)O1 [Doxorubicin, doxorubicin hydrochloride] | 3.43 | significant induction | 0.96 | comparable |  |  | highly | no reduction | no reduction | not cytotoxic
